Data reported in article PMC5078025, “Necrosis-inducing peptide has the beneficial effect on killing tumor cells through neuropilin (NRP-1) targeting” (Oncotarget, 2016).
Bridge positions count the residues as written; N and C are the ends. Ends that are not written are not given here.

Test system: subcutaneous CT26 colorectal carcinoma tumors
Assay: Tumor volume in mice bearing subcutaneous CT26 tumors
Type: in vivo
Conditions: BALB/c mice bearing CT26 tumor, i.v. of 1 mM TU:MTDs twice or three times, n = 3, observed until 9 days
Protocol: Figure 1 Identification of TU17:MTD as a tumor targeting peptide (A) Schematic diagram of the fusion peptides consisting of the tumor-homing motif, linker, and mitochondrial targeting domain (MTD). (B) Tumors were generated over 2 weeks after s.c. injection of CT26 cells into the backs of BALB/c mice. […] Arrows indicate the points of peptide injection. P values < 0.02 (control group vs TU17:MTD at day 5, 6, 7, 8, and 9) (C) HCT116, HeLa, A549, MCF-7, PC3, and BJAB cells were treated with TU17:MTD (0 ~ 20 μM) for 30 minutes, and cell viability was monitored using XTT assays. *P < 0.05 (D) Primary splenocytes and macrophages were treated with TU17:MTD (0 ~ 20 μM) for 30 minutes, and cell viability was monitored by XTT assay. *P < 0.05 (E) CT26 cells were treated with R8:MTD, TU17:MTD, TU17-2:MTD or TU17:MTD^4A (0 ~ 40 μM) for 4 hours, and cell viability was monitored by XTT assay. Results in C to E are expressed as means ± SD (triplicates), and are representative of at least two independent experiments. P values are for experimental groups versus controls and were calculated using Dunnett's t-test. *P < 0.05.
Figure 3 Effects of TU17:MTD, TU17-2:MTD, and TU17-2:D(KLAKLAK)2 on tumor tissues in vivo (A) Tumors were generated over 7~8 days after s.c. injection of CT26 cells into the backs of BALB/c mice. […]

Sequence | Toxicity/Tumor growth
CNGRCVSGCAGRCGGKLLNLISKLF [TU2:MTD, MTD peptide fused with tumor-homing motif, linear] | NR (NR; no regression)
KLLNLISKLFCRGDKRLYDC (disulfide 11-20 (inferred)) [TU11:MTD] | Toxic
